#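 Compound exposure: 48 hours, 5 concentrations, 96-well plates. The concentration for full growth arrest is given as TGI.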
# Tested on: SK-MEL-5 melanoma
# Experiment: NCI tumour cell line growth inhibition, 48 h
row,Compound,TGI [µM]
1,CC(C)(C)OC(=O)NCC(=O)NC1CC=CCC1NC(=O)CNC(=O)OC(C)(C)C (stereo not given),> 100
2,CC[C@@]1(O)C(=O)OCc2c1cc1n(c2=O)Cc2c-1nc1ccccc1c2/C=N/NC(=O)C[N+](C)(C)C,7.98
3,CN(C)/C=N/S(=O)(=O)c1nn2c(C=O)c(-c3ccccc3)nc2s1,27.9

# Tested on: NCI/ADR-RES ovarian
# Experiment: NCI tumour cell line growth inhibition, 48 h
row,Compound,TGI [µM]
1,CCCCCCCCCCCCCCCCOCC(Cl)CP(=O)(O)OP(=O)(O)OCC1OC(n2cnc3c(N)ncnc32)C(O)C1O (stereo not given),> 100
2,FC(F)(F)c1ccc2c(c1)nc(-c1ccccc1)n2CC1CCCN2CCCCC12 (stereo not given),34.3
3,CC(C)(C)OC(=O)NCC(=O)NC1CC=CCC1NC(=O)CNC(=O)OC(C)(C)C (stereo not given),> 100
4,CC[C@@]1(O)C(=O)OCc2c1cc1n(c2=O)Cc2c-1nc1ccccc1c2/C=N/NC(=O)C[N+](C)(C)C,> 62.3
5,CN(C)/C=N/S(=O)(=O)c1nn2c(C=O)c(-c3ccccc3)nc2s1,> 76.6

# Tested on: K-562 leukemia
# Experiment: NCI tumour cell line growth inhibition, 48 h
row,Compound,TGI [µM]
1,CCCCCCCCCCCCCCCCOCC(Cl)CP(=O)(O)OP(=O)(O)OCC1OC(n2cnc3c(N)ncnc32)C(O)C1O (stereo not given),> 100
2,FC(F)(F)c1ccc2c(c1)nc(-c1ccccc1)n2CC1CCCN2CCCCC12 (stereo not given),58.3
3,CC(C)(C)OC(=O)NCC(=O)NC1CC=CCC1NC(=O)CNC(=O)OC(C)(C)C (stereo not given),> 100
4,CC[C@@]1(O)C(=O)OCc2c1cc1n(c2=O)Cc2c-1nc1ccccc1c2/C=N/NC(=O)C[N+](C)(C)C,> 100
5,CN(C)/C=N/S(=O)(=O)c1nn2c(C=O)c(-c3ccccc3)nc2s1,> 61.7

# Tested on: 786-0 renal
# Experiment: NCI tumour cell line growth inhibition, 48 h
row,Compound,TGI [µM]
1,CCCCCCCCCCCCCCCCOCC(Cl)CP(=O)(O)OP(=O)(O)OCC1OC(n2cnc3c(N)ncnc32)C(O)C1O (stereo not given),> 100
2,FC(F)(F)c1ccc2c(c1)nc(-c1ccccc1)n2CC1CCCN2CCCCC12 (stereo not given),30.7
3,CC(C)(C)OC(=O)NCC(=O)NC1CC=CCC1NC(=O)CNC(=O)OC(C)(C)C (stereo not given),> 100
4,CC[C@@]1(O)C(=O)OCc2c1cc1n(c2=O)Cc2c-1nc1ccccc1c2/C=N/NC(=O)C[N+](C)(C)C,> 55.7
5,CN(C)/C=N/S(=O)(=O)c1nn2c(C=O)c(-c3ccccc3)nc2s1,21.3

# Tested on: HCC-2998 colon
# Experiment: NCI tumour cell line growth inhibition, 48 h
row,Compound,TGI [µM]
1,CCCCCCCCCCCCCCCCOCC(Cl)CP(=O)(O)OP(=O)(O)OCC1OC(n2cnc3c(N)ncnc32)C(O)C1O (stereo not given),> 100
2,FC(F)(F)c1ccc2c(c1)nc(-c1ccccc1)n2CC1CCCN2CCCCC12 (stereo not given),32.3
3,CC(C)(C)OC(=O)NCC(=O)NC1CC=CCC1NC(=O)CNC(=O)OC(C)(C)C (stereo not given),> 100
4,CC[C@@]1(O)C(=O)OCc2c1cc1n(c2=O)Cc2c-1nc1ccccc1c2/C=N/NC(=O)C[N+](C)(C)C,> 100
5,CN(C)/C=N/S(=O)(=O)c1nn2c(C=O)c(-c3ccccc3)nc2s1,> 56.5

# Tested on: SF-539 CNS
# Experiment: NCI tumour cell line growth inhibition, 48 h
row,Compound,TGI [µM]
1,CCCCCCCCCCCCCCCCOCC(Cl)CP(=O)(O)OP(=O)(O)OCC1OC(n2cnc3c(N)ncnc32)C(O)C1O (stereo not given),> 100
2,FC(F)(F)c1ccc2c(c1)nc(-c1ccccc1)n2CC1CCCN2CCCCC12 (stereo not given),31
3,CC(C)(C)OC(=O)NCC(=O)NC1CC=CCC1NC(=O)CNC(=O)OC(C)(C)C (stereo not given),> 100
4,CC[C@@]1(O)C(=O)OCc2c1cc1n(c2=O)Cc2c-1nc1ccccc1c2/C=N/NC(=O)C[N+](C)(C)C,2.61
5,CN(C)/C=N/S(=O)(=O)c1nn2c(C=O)c(-c3ccccc3)nc2s1,> 100

# Tested on: UACC-62 melanoma
# Experiment: NCI tumour cell line growth inhibition, 48 h
row,Compound,TGI [µM]
1,CCCCCCCCCCCCCCCCOCC(Cl)CP(=O)(O)OP(=O)(O)OCC1OC(n2cnc3c(N)ncnc32)C(O)C1O (stereo not given),> 100
2,FC(F)(F)c1ccc2c(c1)nc(-c1ccccc1)n2CC1CCCN2CCCCC12 (stereo not given),31.2
3,CC(C)(C)OC(=O)NCC(=O)NC1CC=CCC1NC(=O)CNC(=O)OC(C)(C)C (stereo not given),> 100
4,CC[C@@]1(O)C(=O)OCc2c1cc1n(c2=O)Cc2c-1nc1ccccc1c2/C=N/NC(=O)C[N+](C)(C)C,3.66
5,CN(C)/C=N/S(=O)(=O)c1nn2c(C=O)c(-c3ccccc3)nc2s1,54.4

# Tested on: KM12 colon
# Experiment: NCI tumour cell line growth inhibition, 48 h
row,Compound,TGI [µM]
1,CCCCCCCCCCCCCCCCOCC(Cl)CP(=O)(O)OP(=O)(O)OCC1OC(n2cnc3c(N)ncnc32)C(O)C1O (stereo not given),> 100
2,FC(F)(F)c1ccc2c(c1)nc(-c1ccccc1)n2CC1CCCN2CCCCC12 (stereo not given),66.5
3,CC(C)(C)OC(=O)NCC(=O)NC1CC=CCC1NC(=O)CNC(=O)OC(C)(C)C (stereo not given),> 100
4,CC[C@@]1(O)C(=O)OCc2c1cc1n(c2=O)Cc2c-1nc1ccccc1c2/C=N/NC(=O)C[N+](C)(C)C,> 100
5,CN(C)/C=N/S(=O)(=O)c1nn2c(C=O)c(-c3ccccc3)nc2s1,> 79.7

# Tested on: SNB-75 CNS
# Experiment: NCI tumour cell line growth inhibition, 48 h
row,Compound,TGI [µM]
1,CCCCCCCCCCCCCCCCOCC(Cl)CP(=O)(O)OP(=O)(O)OCC1OC(n2cnc3c(N)ncnc32)C(O)C1O (stereo not given),> 100
2,FC(F)(F)c1ccc2c(c1)nc(-c1ccccc1)n2CC1CCCN2CCCCC12 (stereo not given),50.8
3,CC(C)(C)OC(=O)NCC(=O)NC1CC=CCC1NC(=O)CNC(=O)OC(C)(C)C (stereo not given),> 100
4,CC[C@@]1(O)C(=O)OCc2c1cc1n(c2=O)Cc2c-1nc1ccccc1c2/C=N/NC(=O)C[N+](C)(C)C,9.74
5,CN(C)/C=N/S(=O)(=O)c1nn2c(C=O)c(-c3ccccc3)nc2s1,> 100

# Tested on: MDA-N
# Experiment: NCI tumour cell line growth inhibition, 48 h
row,Compound,TGI [µM]
1,CCCCCCCCCCCCCCCCOCC(Cl)CP(=O)(O)OP(=O)(O)OCC1OC(n2cnc3c(N)ncnc32)C(O)C1O (stereo not given),> 100
2,FC(F)(F)c1ccc2c(c1)nc(-c1ccccc1)n2CC1CCCN2CCCCC12 (stereo not given),36.2
3,CC(C)(C)OC(=O)NCC(=O)NC1CC=CCC1NC(=O)CNC(=O)OC(C)(C)C (stereo not given),> 100
4,CC[C@@]1(O)C(=O)OCc2c1cc1n(c2=O)Cc2c-1nc1ccccc1c2/C=N/NC(=O)C[N+](C)(C)C,> 100
5,CN(C)/C=N/S(=O)(=O)c1nn2c(C=O)c(-c3ccccc3)nc2s1,52.5

# Tested on: HS 578T breast
# Experiment: NCI tumour cell line growth inhibition, 48 h
row,Compound,TGI [µM]
1,CCCCCCCCCCCCCCCCOCC(Cl)CP(=O)(O)OP(=O)(O)OCC1OC(n2cnc3c(N)ncnc32)C(O)C1O (stereo not given),> 100
2,FC(F)(F)c1ccc2c(c1)nc(-c1ccccc1)n2CC1CCCN2CCCCC12 (stereo not given),33.9
3,CC(C)(C)OC(=O)NCC(=O)NC1CC=CCC1NC(=O)CNC(=O)OC(C)(C)C (stereo not given),> 100
4,CC[C@@]1(O)C(=O)OCc2c1cc1n(c2=O)Cc2c-1nc1ccccc1c2/C=N/NC(=O)C[N+](C)(C)C,> 100
5,CN(C)/C=N/S(=O)(=O)c1nn2c(C=O)c(-c3ccccc3)nc2s1,> 100

# Tested on: MCF7 breast
# Experiment: NCI tumour cell line growth inhibition, 48 h
row,Compound,TGI [µM]
1,CCCCCCCCCCCCCCCCOCC(Cl)CP(=O)(O)OP(=O)(O)OCC1OC(n2cnc3c(N)ncnc32)C(O)C1O (stereo not given),> 100
2,FC(F)(F)c1ccc2c(c1)nc(-c1ccccc1)n2CC1CCCN2CCCCC12 (stereo not given),38.8
3,CC(C)(C)OC(=O)NCC(=O)NC1CC=CCC1NC(=O)CNC(=O)OC(C)(C)C (stereo not given),> 100
4,CC[C@@]1(O)C(=O)OCc2c1cc1n(c2=O)Cc2c-1nc1ccccc1c2/C=N/NC(=O)C[N+](C)(C)C,> 100
5,CN(C)/C=N/S(=O)(=O)c1nn2c(C=O)c(-c3ccccc3)nc2s1,> 100

# Tested on: NCI-H23 lung
# Experiment: NCI tumour cell line growth inhibition, 48 h
row,Compound,TGI [µM]
1,CCCCCCCCCCCCCCCCOCC(Cl)CP(=O)(O)OP(=O)(O)OCC1OC(n2cnc3c(N)ncnc32)C(O)C1O (stereo not given),> 100
2,CC(C)(C)OC(=O)NCC(=O)NC1CC=CCC1NC(=O)CNC(=O)OC(C)(C)C (stereo not given),> 100
3,CC[C@@]1(O)C(=O)OCc2c1cc1n(c2=O)Cc2c-1nc1ccccc1c2/C=N/NC(=O)C[N+](C)(C)C,6.27
4,CN(C)/C=N/S(=O)(=O)c1nn2c(C=O)c(-c3ccccc3)nc2s1,> 83

# Tested on: EKVX NSCLC
# Experiment: NCI tumour cell line growth inhibition, 48 h
row,Compound,TGI [µM]
1,CCCCCCCCCCCCCCCCOCC(Cl)CP(=O)(O)OP(=O)(O)OCC1OC(n2cnc3c(N)ncnc32)C(O)C1O (stereo not given),> 100
2,FC(F)(F)c1ccc2c(c1)nc(-c1ccccc1)n2CC1CCCN2CCCCC12 (stereo not given),> 100
3,CC[C@@]1(O)C(=O)OCc2c1cc1n(c2=O)Cc2c-1nc1ccccc1c2/C=N/NC(=O)C[N+](C)(C)C,> 100
4,CN(C)/C=N/S(=O)(=O)c1nn2c(C=O)c(-c3ccccc3)nc2s1,> 100

# Tested on: A549 NSCLC
# Experiment: NCI tumour cell line growth inhibition, 48 h
row,Compound,TGI [µM]
1,CCCCCCCCCCCCCCCCOCC(Cl)CP(=O)(O)OP(=O)(O)OCC1OC(n2cnc3c(N)ncnc32)C(O)C1O (stereo not given),> 100
2,FC(F)(F)c1ccc2c(c1)nc(-c1ccccc1)n2CC1CCCN2CCCCC12 (stereo not given),> 100
3,CC(C)(C)OC(=O)NCC(=O)NC1CC=CCC1NC(=O)CNC(=O)OC(C)(C)C (stereo not given),> 100
4,CC[C@@]1(O)C(=O)OCc2c1cc1n(c2=O)Cc2c-1nc1ccccc1c2/C=N/NC(=O)C[N+](C)(C)C,> 100
